Patent US6861409B2, “Growth hormone secretagogues” (Zentaris AG, priority 2000, dated 2005)
Square brackets hold non-standard residues; d marks the D form. Peptide text beside a SMILES is read from it. dTrp(2-Me) = Cc1[nH]c2ccccc2c1C[C@@H](N)C(=O)O

Tested on: plasma GH concentrations
Assay: Growth hormone releasing activity in the infant rat (plasma GH by RIA)
Format: in vivo, Sprague Dawley rats
Settings: male 10-day-old rats, 300 μg/kg subcutaneously, plasma 15 min later
Method: Male 10-day-old Sprague Dawley rats, about 25 g body weight were used.
One hour before the experiments, pups were separated from their respective dams and were divided randomly into groups of eight each.
Pups were acutely challenged subcutaneously with 100 μl of solvent (DMSO, final dilution 1:300 in physiological saline), hexarelin (Tyr-Ala-His-D-Mrp-Ala-Trp-D-Phe-Lys-NH2, used as a reference drug), or new compounds (300 μg/kg) and killed by decapitation 15 min later.
Trunk blood was collected and centrifuged immediately. Plasma samples were stored at −20° C. until assayed for the determination of plasma GH concentrations.
Growth hormone concentrations in plasma were measured by RIA using materials provided by the National Institute of Diabetes, Digestive and Kidney Diseases (NIDDK) of the National Institute of Health U.S.A.
Values were expressed in terms of the NIDDK-rat-GH-RP-2 standard (potency 21 U/mg) as ng/ml of plasma.
The minimum detectable value of rat GH was about 1.0 ng/ml, and intraassay variability was about 6%.

CCNC(=O)NC(Cc1c[nH]c2ccccc12)NC(=O)C(Cc1c[nH]c2ccccc12)NC(=O)C(C)(C)NC (centres unmarked) [Example 59, N-Me-Aib-(D)-Trp-(D)-gTrp-C(O)NHCH2CH3]
GH (Table 10 test series): 179.53 ± 24.65 ng/mL

CC(C)(N)C(=O)NC(Cc1cccc2ccccc12)C(=O)NC(Cc1cccc2ccccc12)NC=O (centres unmarked) [Example 42, H-Aib-(D)-1-Nal-g-(D)-1-Nal-formyl]
GH (Table 5 test series): 25.05 ± 06.00 ng/mL

CNC(C)(C)C(=O)NC(Cc1c[nH]c2ccccc12)C(=O)NC(C)(Cc1c[nH]c2ccccc12)NC(C)=O [Example 62, H-Me-Aib-(D)-Trp-(R)-Me-gTrp-acetyl]
GH (Table 8 test series): 171.78 ± 10.32 ng/mL

CC(C)(N)C(=O)N[C@H](Cc1c[nH]c2ccccc12)C(=O)NC(Cc1cccc2ccccc12)NC=O (some centres unmarked) [Example 46, H-Aib-(D)-Trp-g-(D)-1-Nal-formyl]
GH (Table 5 test series): 8.26 ± 01.09 ng/mL

NC1(C(=O)NC(Cc2c[nH]c3ccccc23)C(=O)NC(Cc2c[nH]c3ccccc23)NC=O)CC1 (centres unmarked) [Example 54, H-Acc^3-(D)-Trp-(D)-gTrp-formyl]
GH (Table 9 test series): 7.89 ± 3.20 ng/mL

CNC(C)(C)C(=O)NC(Cc1c[nH]c2ccccc12)C(=O)NC(Cc1c[nH]c2ccccc12)NC=O [Example 3, N-Me-Aib-D-Trp-D-gTrp-CHO]
GH (Table 2 test series): 86.6 ± 12.6 ng/mL

Pip-D-Trp-D-gTrp-CHO [Example 6]
GH (Table 3 test series): 109.7 ± 10.1 ng/mL

CC(Cc1c[nH]c2ccccc12)(NC=O)NC(=O)C(Cc1c[nH]c2ccccc12)NC(=O)C(C)(C)N [Example 61, H-Aib-(D)-Trp-(R)-Me-gTrp-formyl]
GH (Table 8 test series): 152.28 ± 43.76 ng/mL

Cc1[nH]c2ccccc2c1C[C@@H](NC(=O)[C@@H](N)Cc1cnc[nH]1)C(=O)N[C@@H](C)C(=O)N[C@@H](Cc1c[nH]c2ccccc12)C(=O)N[C@H](Cc1ccccc1)C(=O)N[C@@H](CCCCN)C(N)=O [HEXARELIN, Tyr-Ala-His-D-Mrp-Ala-Trp-D-Phe-Lys-NH2, reference compound] (H-H[dTrp(2-Me)]AW[dF]K-NH2)
GH (Table 1 test series): 202 ± 32.7 ng/mL | GH (Table 2 test series): 134.5 ± 27.2 ng/mL | GH (Table 3 test series): 114.7 ± 8.4 ng/mL | GH (Table 4 test series): 114.5 ± 12.9 ng/mL | GH (Table 5 test series): 276.01 ± 23.5 ng/mL | GH (Table 6 test series): 91.61 ± 4.09 ng/mL | GH (Table 7 test series): 172.5 ± 38.53 ng/mL | GH (Table 8 test series): 172.5 ± 38.53 ng/mL | GH (Table 9 test series): 89.91 ± 3.04 ng/mL | GH (Table 10 test series): 172.5 ± 38.53 ng/mL

O=CNC(Cc1c[nH]c2ccccc12)NC(=O)C(Cc1c[nH]c2ccccc12)NC(=O)C1CCNCC1 [Example 8, Isonipecotyl-D-Trp-D-gTrp-CHO]
GH (Table 3 test series): 94.2 ± 8.6 ng/mL

H-Aib-(D)-1-Nal-(D)-gTrp-formyl [Example 44]
GH (Table 5 test series): 15.04 ± 03.30 ng/mL

CC(C)(N)C(=O)NC(Cc1c[nH]c2ccccc12)C(=O)NC(Cc1c[nH]c2ccccc12)NC=O (centres unmarked) [Example 13, H-Aib-(D)-Trp-gTrp-CHO]
GH (Table 1 test series): 58 ± 6.3 ng/mL

NC1(C(=O)NC(Cc2c[nH]c3ccccc23)C(=O)NC(Cc2c[nH]c3ccccc23)NC=O)CCCC1 (centres unmarked) [Example 55, H-Acc^5-(D)-Trp-(D)-gTrp-formyl]
GH (Table 9 test series): 11.46 ± 1.18 ng/mL

CN(C)C(C)(C)C(=O)NC(Cc1c[nH]c2ccccc12)C(=O)NC(Cc1c[nH]c2ccccc12)NC=O (centres unmarked) [Example 52, N(Me)2-Aib-(D)-Trp-(D)-gTrp-formyl]
GH (Table 7 test series): 121.43 ± 29 ng/mL

CC(C)(N)C(=O)NC(Cc1ccc2ccccc2c1)C(=O)NC(Cc1c[nH]c2ccccc12)NC=O (centres unmarked) [Example 45, H-Aib-(D)-2-Nal-(D)-gTrp-formyl]
GH (Table 5 test series): 13.91 ± 03.87 ng/mL

CC(C)(N)C(=O)NC(Cc1ccc2ccccc2c1)C(=O)NC(Cc1ccc2ccccc2c1)NC=O (centres unmarked) [Example 43, H-Aib-(D)-2-Nal-g-(D)-2-Nal-formyl]
GH (Table 5 test series): 37.33 ± 19.74 ng/mL

H-Aib-D-Trp-N-Me-D-gTip-C(O)CH3 [Example 41]
GH (Table 4 test series): 75.4 ± 15.0 ng/mL

CNC(C)(C)C(=O)NC(CC1CNc2ccccc21)C(=O)NC(Cc1c[nH]c2ccccc12)NC(C)=O (racemic) [Example 51, N(Me)-Aib-(D)-3(R/S)-Dht-(D)-gTrp-acetyl]
GH (Table 6 test series): 19.38 ± 4.16 ng/mL

CC(C)(N)C(=O)NC(Cc1c[nH]c2ccccc12)C(=O)NC(CC1CNc2ccccc21)NC=O (racemic) [Example 48, H-Aib-(D)-Trp-(D)-3(R/S)-Dht-formyl]
GH (Table 6 test series): 17.49 ± 2.40 ng/mL

H-Aib-(D)-3(R/S)-Dht-g-(D)-Trp-formyl [Example 49]
GH (Table 6 test series): 24.35 ± 4.85 ng/mL

CNC(C)(C)C(=O)NC(Cc1c[nH]c2ccccc12)C(=O)NC(Cc1c[nH]c2ccccc12)NC(=O)C1CCNCC1 [Example 39, N-Me-Aib-D-Trp-D-gTrp-Isonipecotyl]
GH (Table 4 test series): 97.1 ± 21.0 ng/mL

CNC(C)(C)C(=O)N[C@H](Cc1c[nH]c2ccccc12)C(=O)N(C)[C@H](Cc1c[nH]c2ccccc12)NC(C)=O [Example 40, N-Me-Aib-D-Trp-N-Me-D-gTrp-C(O)CH3]
GH (Table 4 test series): 188.2 ± 28.5 ng/mL

CCC(=O)NC(Cc1c[nH]c2ccccc12)NC(=O)C(Cc1c[nH]c2ccccc12)NC(=O)C(C)(C)N [Example 19, Aib-D-Trp-gTrp-CO—CH2—CH3]
GH (Table 3 test series): 79.8 ± 22.4 ng/mL

CC(=O)NC(Cc1c[nH]c2ccccc12)NC(=O)C(Cc1c[nH]c2ccccc12)NC(=O)C1CCNCC1 [Example 9, Isonipecotyl-D-Trp-D-gTrp-C(O)CH3]
GH (Table 3 test series): 61.2 ± 10.8 ng/mL

CC(C)(N)C(=O)NC(Cc1c[nH]c2ccccc12)C(=O)NC(Cc1ccc2ccccc2c1)NC=O [Example 47, H-Aib-D-Trp-g-D-2-Nal-formyl]
GH (Table 5 test series): 9.04 ± 04.03 ng/mL

CNC(C)(C)C(=O)N[C@H](Cc1c[nH]c2ccccc12)C(=O)N[C@H](Cc1c[nH]c2ccccc12)NC(C)=O [Example 5, N-Me-Aib-D-Trp-D-gTrp-C(O)CH3]
GH (Table 2 test series): 175.5 ± 37.2 ng/mL

NC1(C(=O)NC(Cc2c[nH]c3ccccc23)C(=O)NC(Cc2c[nH]c3ccccc23)NC=O)CCCCC1 (centres unmarked) [Example 56, H-Acc^6-(D)-Trp-(D)-gTrp-formyl]
GH (Table 9 test series): 8.49 ± 0.40 ng/mL

CNC(C)(C)C(=O)NC(Cc1c[nH]c2ccccc12)C(=O)NC(CC1CNc2ccccc21)NC(C)=O (racemic) [Example 50, N(Me)-Aib-(D)-Trp-(D)-3(R/S)-gDht-acetyl]
GH (Table 6 test series): 11.17 ± 1.35 ng/mL

CC(C)(N)C(=O)NC(C)(Cc1c[nH]c2ccccc12)C(=O)NC(Cc1c[nH]c2ccccc12)NC=O [Example 60, H-Aib-(R)—Me-Trp-(D)-gTrp-formyl]
GH (Table 8 test series): 21.02 ± 3.43 ng/mL

CCNC(=O)NC(Cc1c[nH]c2ccccc12)NC(=O)C(Cc1c[nH]c2ccccc12)NC(=O)C(C)(C)N (centres unmarked) [Example 58, H-Aib-(D)-Trp-(D)-gTrp-C(O)NHCH2CH3]
GH (Table 10 test series): 376.48 ± 43.24 ng/mL

CC(C)(N)C(=O)NC(Cc1c[nH]c2ccccc12)C(=O)NC(Cc1c[nH]c2ccccc12)NC(=O)C1CCNCC1 [Example 22, Aib-D-Trp-gTrp-CO-piperidin-4-yl]
GH (Table 3 test series): 153.6 ± 30.6 ng/mL

CCCC(N)(CCC)C(=O)NC(Cc1c[nH]c2ccccc12)C(=O)NC(Cc1c[nH]c2ccccc12)NC=O (centres unmarked) [Example 57, H-Dpg-(D)-Trp-(D)-gTrp-formyl]
GH (Table 9 test series): 18.38 ± 2.88 ng/mL

CC(=O)NC(Cc1c[nH]c2ccccc12)NC(=O)C(Cc1c[nH]c2ccccc12)NC(=O)C(C)(C)N(C)C (centres unmarked) [Example 53, N(Me)2-Aib-(D)-Trp-(D)-gTrp-acetyl]
GH (Table 7 test series): 26.80 ± 5.64 ng/mL

CC(=O)NC(Cc1c[nH]c2ccccc12)NC(=O)C(Cc1c[nH]c2ccccc12)NC(=O)C(C)(C)N [Example 4, H-Aib-D-Trp-D-gTrp-C(O)CH3]
GH (Table 2 test series): 104.7 ± 13.5 ng/mL

Pip-D-Trp-D-gTrp-C(O)CH3 [Example 7]
GH (Table 3 test series): 53.1 ± 6.6 ng/mL
